Assay results as given in US4933354A, “2-pyrrolidone-5-carboxylic acid compounds useful for the treatment of mental disorders” (Kissei Pharmaceutical Co., Ltd., priority 1987, dated 1990).

Test system: not listed separately
Assay: Acute toxicity
Conditions: mouse, in vivo; male SCL-ICR mice, single shot, lethality at 1 week; route not given
Procedure: The test compounds were administered to male mice of SCL-ICR-strain, 7 weeks age, at several dosage (single shot) and LD50, 50% lethal dose, was estimated from the number of lethal mice at 1 week past to the administration.

Question: With `O=C1CCC(C(=O)OCc2ccc(Cl)cc2)N1` (centres unmarked) [Compound 1, p-Chlorobenzyl 2-pyrrolidone-5-carboxylate] as the molecule, how does the LD50 at 168 h read?
Answer: > 2590 mg/kg

Question: Which LD50 at 168 h does the source give for `O=C1CCC(C(=O)OCc2ccccn2)N1` (centres unmarked) [Compound 2, 2-Pyridylmethyl 2-pyrrolidone-5-carboxylate] here?
Answer: 1540 mg/kg

Question: Which LD50 at 168 h does the source give for `O=C1CCC(C(=O)OCc2cccnc2)N1` (centres unmarked) [Compound 3, 3-Pyridylmethyl 2-pyrrolidone-5-carboxylate] here?
Answer: > 2590 mg/kg

Question: With `O=C1CCC(C(=O)OCc2ccncc2)N1` (centres unmarked) [Compound 4, 4-Pyridylmethyl 2-pyrrolidone-5-carboxylate] as the molecule, how does the LD50 at 168 h read?
Answer: > 2590 mg/kg

Question: Which LD50 at 168 h does the source give for `O=C1CCC(C(=O)OCCc2ccccn2)N1` (centres unmarked) [Compound 5, 2-(2-Pyridyl)ethyl 2-pyrrolidone-5-carboxylate] here?
Answer: > 2590 mg/kg

Question: Which LD50 at 168 h does the source give for `O=C1CCC(C(=O)OCCCc2ccccn2)N1` (centres unmarked) [Compound 6, 3-(2-Pyridyl)propyl 2-pyrrolidone-5-carboxylate] here?
Answer: < 1250 mg/kg

Question: Which LD50 at 168 h does the source give for `O=C1CCC(C(=O)NCc2ccccn2)N1` (centres unmarked) [Compound 7, N-(2-Pyridylmethyl)-2-pyrrolidone-5-carboxamide] here?
Answer: > 2590 mg/kg

Test system: ECS-induced amnesic mice
Assay: One trial passive avoidance task by step-through test (ECS-induced amnesia)
Assay type: in vivo, mice (male, dd-strain)
Conditions: oral, 1 μmole/mouse, 1 hr before training trial; test 24 hr after training
Procedure: Anti-amnesic effects of the compounds were determined by the following tests. Male mice of dd-strain, weighing 23-30 g, were employed for the experiment, and the test compounds were freshly dissolved in saline and administered orally at a dose of 1 μmole/mouse. (1) One trial passive avoidance task by step-through test A shuttle box composed of a light (7 cm high, 9 cm wide and 15 cm depth) and a dark (12 cm high, 13 cm wide and 15 cm depth) box; the former was lighted using […]-white light fluorescent bar lamp placed at the position of 40 cm from the floor and in the latter the stainless steel floor grids 2.5 mm in diameter were placed at intervals of 4 mm in order to give a foot shock. Both boxes were connected with a gate 3 cm in diameter. As the training trial, each animal was placed in the light box and a foot shock ([…]) was delivered through the floor grid immediately after the animal entered into the dark box, accordingly the animal learned a punishment for the entrance. […] Twenty-four hr after the training trial, the animal was placed again in the light box and step-through (ST) latency, time spent until the animal entered the dark box, was measured. […] The ST-latency on the test trial was measured up to 300 and 600 sec for control and amnesic group, respectively.

Question: With `O=C1CCC(C(=O)OCc2ccc(Cl)cc2)N1` (centres unmarked) [Compound 1, p-Chlorobenzyl 2-pyrrolidone-5-carboxylate] as the molecule, how does the “ST-latency in ECS-induced amnesic mice” value read?
Answer: prolonged the ST-latency in ECS-induced amnesic mice significantly
